The values below come from PMC6271520, “Isolation and Characterization of an α-Glucosidase Inhibitor from Musa spp. (Baxijiao) Flowers” (Molecules, 2014).

Assay [1] deals with T1, α-Glucosidase from Bacillus stearothermophilus (Geobacillus stearothermophilus, UniProt A0ACH1E9U3). Kind of assay: α-glucosidase inhibitory activity assay (pNPG substrate, PNP release at 405 nm). The format is biochemical. The conditions noted are these: for IC50: pH 6.8, 37 °C, 2.5 mmol/L pNPG. The method, then:
Louis, MO, USA). […] All the reagents were of analytical grade. […] Then 0.5 mL of 2.5 mmol/L p-nitrophenyl-α-D-glucopyranoside as the substrate was added to the mixture to start the reaction. The reaction was incubated at 37 °C for 15 min and stopped by adding 1 mL 0.2 mol/L sodium carbonate solution. The α-glucosidase activity was determined by measuring the release of PNP at 405 nm. For the inhibitory activity assay, crude ethanol extracts were dissolved in 50% aqueous dimethyl sulfoxide, while the chloroform, ethyl acetate, and n-butanol fractions and puriﬁed compounds were dissolved in dimethyl sulfoxide. […] The inhibition of the test sample on α-glucosidase was calculated as follows: […] where Acontrol: Absorbance for 100% enzyme activity (+enzyme), Asample: Test sample (+enzyme + inhibitor) and Abackground: Inhibitor background absorbance (−enzyme + inhibitor).

The target of assay [2] is α-glucosidase. The arrangement: method as in PMID 17270224. The conditions noted are these: vanillic acid from stem bark of Fagara tessmannii; cited from earlier work.
In assay [3] the target is α-glucosidase. The arrangement: method as in doi:10.1016/j.phytol.2013.08.005. Particulars: β-sitosterol isolated from Chrozophora plicata; cited from earlier work.
Assay [4] addresses T1, α-Glucosidase from Bacillus stearothermophilus. Kind of assay: Lineweaver–Burk plot analysis of inhibition kinetics of α-glucosidase. The format is biochemical. Particulars: for mode of inhibition: Lineweaver–Burk plot, varying pNPG; for Ki: from Vmax at 12.5 and 50.0 mg/L (compound 5), 400 and 800 mg/L (compounds 3 and 4). The method, then: The mechanism of the binding of compounds 3, 4 and 5 to α-glucosidase was further studied.
The Ki value was calculated using the values of Vmax obtained at 12.5 and 50.0 mg/L for compound 5 and the values of Vmax obtained at 400 and 800 mg/L for compounds 3 and 4, respectively.
To determine the kinetic mode of inhibition of isolated α-glucosidase inhibitors, Lineweaver–Burk plot analysis was performed. This kinetics study was carried out in the presence and absence of inhibitors with varying concentrations of 4-NPGP as the substrate. The mode of inhibition of the test compounds was assessed on the basis of the inhibitory effects on Km (dissociation constant) and Vmax (maximum reaction velocity) of the enzyme determined using a Lineweaver-Burk plot, which is the double reciprocal plot of the enzyme reaction velocity (V) versus the substrate (p-nitrophenyl β-D-glucopyranoside, pNPG) concentration (1/V versus 1/[pNPG]).

The mark [5] stands for this setting: read-out: IC50 (mg/L) (converted).

Where two headings read alike, the source gives them in different places.

T1 sequence (A0ACH1E9U3 entry or part of it): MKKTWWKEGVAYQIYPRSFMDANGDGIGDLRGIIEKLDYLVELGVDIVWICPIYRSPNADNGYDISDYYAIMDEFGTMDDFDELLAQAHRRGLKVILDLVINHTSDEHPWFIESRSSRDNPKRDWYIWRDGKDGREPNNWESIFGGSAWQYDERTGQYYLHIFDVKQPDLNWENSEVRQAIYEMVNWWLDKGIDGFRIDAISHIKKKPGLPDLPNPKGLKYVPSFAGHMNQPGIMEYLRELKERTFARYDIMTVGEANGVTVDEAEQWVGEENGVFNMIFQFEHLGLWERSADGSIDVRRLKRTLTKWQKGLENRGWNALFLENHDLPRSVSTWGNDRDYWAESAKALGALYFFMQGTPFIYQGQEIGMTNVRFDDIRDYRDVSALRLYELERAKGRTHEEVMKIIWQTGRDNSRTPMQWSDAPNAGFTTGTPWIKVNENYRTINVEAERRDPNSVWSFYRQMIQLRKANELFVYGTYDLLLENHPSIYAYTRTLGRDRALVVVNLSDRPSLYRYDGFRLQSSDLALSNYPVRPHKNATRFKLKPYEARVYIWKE

Consider `C[C@H]1O[C@H](O[C@H]2[C@H](O)[C@@H](O)[C@@H](O[C@H]3[C@H](O)[C@@H](O)C(O)O[C@@H]3CO)O[C@@H]2CO)[C@H](O)[C@@H](O)[C@@H]1N[C@H]1C=C(CO)[C@@H](O)[C@H](O)[C@H]1O` (stereo partly drawn) [Acarbose, reference compound], for which the inhibition (in general, how much of the control response was suppressed) at 1500 µg/mL in assay [1] (at 1.5 mg/mL, read-out: percent inhibition against α-glucosidase) is 56.4%. Besides, the IC50 in assay [1] (setting [5]) was 1550 µM.
Regarding `COc1cc(C(=O)O)ccc1O` [Compound 1, Vanillic acid], the IC50 on α-glucosidase [2] is 69.4 ± 0.8 µM; in assay [1] (read-out: IC50 (mg/L)), 11900 µM.
For `COc1cc(/C=C/C(=O)O)ccc1O` [Compound 2, Ferulic acid], the IC50 in assay [1] (read-out: IC50 (mg/L)) is 6480 µM.
As to `CC[C@H](CC[C@@H](C)[C@H]1CC[C@H]2[C@@H]3CC=C4C[C@@H](O)CC[C@]4(C)[C@H]3CC[C@]12C)C(C)C` [Compound 3, β-Sitosterol], the IC50 in assay [1] (read-out: IC50 (mg/L)) was 684 µM; at α-glucosidase [3], 287.1 ± 0.75 µM. The mode of inhibition entry in assay [4] was “competitive inhibitors”. Besides, in assay [4] (read-out: inhibition constant (Ki)), the Ki (as a rule, a dissociation constant, usually derived from enzyme kinetics or from competition with a known ligand) was 48.4 µM.
In the case of `CC[C@H](CC[C@@H](C)[C@H]1CC[C@H]2[C@@H]3CC=C4C[C@@H](O[C@@H]5O[C@H](CO)[C@@H](O)[C@H](O)[C@H]5O)CC[C@]4(C)[C@H]3CC[C@]12C)C(C)C` [Compound 4, Daucosterol], the IC50 in assay [1] (setting [5]) is 429 µM. Also, the mode of inhibition result in assay [4] was “competitive inhibitors”. Also, in assay [4] (read-out: inhibition constant (Ki) (converted)), the Ki was 4.06 µM.
